Key:
Assay type in all cases: in vivo, mouse
[1] = tested on: B6.129P2-Fmr1tm1Cgr/J transgenic (TG) mice; assay: Light/dark preference test (LDT), anxiety-like behavior
Experimental: • 1. N=6 mice per group. • 2. All behavioral testing included a group of untreated wild type controls. • 3. Dosing for the various groups were as follows: • a. […] Group 2: IP saline, […], administered weekly to animals beginning at 9 weeks of age and continuing for four weeks (i.e. given at Age Weeks 9, 10, 11 and 12). • c. […] Behavioral tests for all groups (Groups 1-5) began the following day after the last day of IN dosing (Weeks 13-14 of age). • 5. Blood samples (PK testing) were collected from all mice at the end of 12 Weeks of age, just prior to starting the behavioral tests in Week 13. • 6. Brain tissue (for biochemistry testing) was harvested from all mice upon sacrifice at the conclusion of all behavioral testing at the end of 13-14 Weeks of age.
(§1) Male B6.129P2-Fmr1tm1Cgr/J TG mice were purchased from Jackson Laboratories, Bar Harbor, Maine. These mice were of approximately 8(+1) weeks of age. Mice were maintained in group cages (6 mice per cage based on treatment group) in a controlled environment (temperature: 21.5±4.5° C./relative humidity: 35-55%) under a standard 12-hour light/12-hour dark lighting cycle (lights on at 06:00). Mice accommodated to the research facility for the remainder of the week. Dosing began on the following Monday. Body weights of all mice were recorded for health monitoring purposes.
Dosing was carried out over the course of 28 days as instructed by the study sponsor. • 1. Prior to the beginning of the light/dark test, a dark box (red transparent enclosure with an opening for the mouse to enter) is placed in the SmartCage™ • 2. An individual mouse is placed in the open/non-dark box side (“Light Zone”), with its head facing away from the dark box. • 3. The mouse is then allowed to freely explore the SmartCage™ and enter the dark box “Dark Zone” at its own discretion over a 10-minute span. • 4. Anxiety-like behavior is assessed based on the SmartCage™ monitoring of time spent in the Light Zone, the number of Light Zone entries, and % Time Spent in the Light Zone. • 5. […]

[2] = tested on: B6.129P2-Fmr1tm1Cgr/J transgenic (TG) mice; assay: Locomotor activity test (SmartCage)
Experimental: (§2) • 1. N=6 mice per group. • 2. All behavioral testing included a group of untreated wild type controls. • 3. Dosing for the various groups were as follows: • a. […] Group 2: IP saline, […], administered weekly to animals beginning at 9 weeks of age and continuing for four weeks (i.e. given at Age Weeks 9, 10, 11 and 12). • c. […] Behavioral tests for all groups (Groups 1-5) began the following day after the last day of IN dosing (Weeks 13-14 of age). • 5. Blood samples (for PK testing) were collected from all mice at the end of Week 12 of age, just prior to starting the behavioral tests in Week 13 of age. • 6. Brain tissue (for biochemistry testing) was harvested from all mice upon sacrifice at the conclusion of all behavioral testing at the end of Week 13-14 of age.
Male B6.129P2-Fmr1tm1Cgr/J TG (TG) mice were purchased from Jackson Laboratories, Bar Harbor, Maine. These mice were of approximately 8(+1) weeks of age. […] Body weights of all mice were recorded for health monitoring purposes.
Dosing was carried out over the course of 28 days as instructed by the study Sponsor. […] Day 1 to Day 2: Locomotor Activity recording is assessed using the SmartCage™ • 2. […]
Each mouse was placed in a clean plastic, transparent home cage within the SmartCage™. […] Active Time, Travel Distance, and Rearing Activity were assessed for each mouse. Data analyzed based on treatment group.

[3] = tested on: B6.129P2-Fmr1tm1Cgr/J transgenic (TG) mice; assay: Step through passive avoidance test, learning and memory
Experimental: as §2, with “type (WT)” for “type”
as §1, with “TG (TG)” for “TG”, “8 (±1)” for “8(+1)”, “12 hour light/12 hour” for “12-hour light/12-hour”
Dosing was carried out over the course of 28 days as instructed by the study Sponsor. The fifth and final behavioral test, the Step Through (ST) Passive Avoidance Test, was performed over two days (days 38 and 39) with the first day as a Training Day and the second day as a Test Day. Passive avoidance is fear-motivated tests classically used to assess short-term or long-term memory on rodents. […] The mouse is then allowed to freely explore the SmartCage™ and enter the dark box “Dark Zone” at its own discretion; dark box entry latency is automatically recorded. • 4. […] The mouse may freely explore the SmartCage™ for 5 minutes, and avoidance of the Dark Box due to contextual-fear association is assessed. • 8. […]

For Cc1ccc(C(=O)Nc2ccc(S(=O)(=O)O)c3cc(S(=O)(=O)O)cc(S(=O)(=O)O)c23)cc1NC(=O)c1cccc(NC(=O)Nc2cccc(C(=O)Nc3cc(C(=O)Nc4ccc(S(=O)(=O)O)c5cc(S(=O)(=O)O)cc(S(=O)(=O)O)c45)ccc3C)c2)c1 [suramin, 1,3,5-Naphthalenetrisulfonic acid, 8,8′-[carbonylbis[imino-3,1-phenylenecarbonylimino(4-methyl-3,1-phenylene)carbonylimino]]bis-], the “percentage of time spent in the light zone” value ([1]; IN weekly for 4 weeks) was “higher percentage of time spent in the Light Zone”, the “total time spent in the light zone” value ([1]; IN weekly for 4 weeks, 10-minute test) was ~6.5 min and the “dark zone entry latency” value ([1]; all IN groups (daily, every other day, weekly)) was 60 to 65 s. The active time ([2]; IN daily, weekly and every 2 days, ~24 h recording) was “greater activity compared to the WT control group”, the rearing count ([2]; IN every 2 days) was “comparable to the WT control group” and the “dark zone entry latency” value ([3]; Test Day, IP 20 mg/kg weekly) was “shortest latency”. The “percentage of time spent in the light zone” value ([3]; test day, IN groups) was “greater than 70%” and the “total light zone time” value ([3]; test day, IP 20 mg/kg weekly) was “lower total time”.
